From patent US11046699B2, “Pyrazolo-pyrimidin-amino-cycloalkyl compounds and their therapeutic uses” (RAPT THERAPEUTICS, INC., priority 2018, dated 2021) come the findings set out here.

This assay has as its target GCN2 (Homo sapiens, UniProt Q9P2K8). Briefly: GCN2 enzymatic endpoint assay: phosphorylation of GFP-eIF2α measured by TR-FRET (Lanthascreen). It counts as biochemical. In a few lines:
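Reaction started with 2 μM ATP and 80 nM GFP-labelled eIF2α substrate at room temperature, stopped with EDTA after 90 minutes. Phospho-eIF2α detected by terbium-labelled antibody TR-FRET; activity taken as 520 nm (fluorescein) to 495 nm (terbium) emission ratio.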
For orientation: Time-resolved FRET reads energy transfer from a long-lived donor to a nearby acceptor.

Setting [1] is: tested as described in Example 77, compound and/or hydrochloride, dihydrochloride or trifluoroacetic acid salt, read-out: IC 50 Activity.
[2] abbreviates: GCN2 biochemical IC50, 4 nM GCN2, 2 μM ATP, 80 nM GFP-eIF2α, 90 min RT, read-out: GCN2 activity.

Each structure is given as a SMILES string. Structures can show the parent of a compound that is named as a salt. Where two headings read alike, the source gives them in different places.

GCN2, sequence (Q9P2K8 whole entry): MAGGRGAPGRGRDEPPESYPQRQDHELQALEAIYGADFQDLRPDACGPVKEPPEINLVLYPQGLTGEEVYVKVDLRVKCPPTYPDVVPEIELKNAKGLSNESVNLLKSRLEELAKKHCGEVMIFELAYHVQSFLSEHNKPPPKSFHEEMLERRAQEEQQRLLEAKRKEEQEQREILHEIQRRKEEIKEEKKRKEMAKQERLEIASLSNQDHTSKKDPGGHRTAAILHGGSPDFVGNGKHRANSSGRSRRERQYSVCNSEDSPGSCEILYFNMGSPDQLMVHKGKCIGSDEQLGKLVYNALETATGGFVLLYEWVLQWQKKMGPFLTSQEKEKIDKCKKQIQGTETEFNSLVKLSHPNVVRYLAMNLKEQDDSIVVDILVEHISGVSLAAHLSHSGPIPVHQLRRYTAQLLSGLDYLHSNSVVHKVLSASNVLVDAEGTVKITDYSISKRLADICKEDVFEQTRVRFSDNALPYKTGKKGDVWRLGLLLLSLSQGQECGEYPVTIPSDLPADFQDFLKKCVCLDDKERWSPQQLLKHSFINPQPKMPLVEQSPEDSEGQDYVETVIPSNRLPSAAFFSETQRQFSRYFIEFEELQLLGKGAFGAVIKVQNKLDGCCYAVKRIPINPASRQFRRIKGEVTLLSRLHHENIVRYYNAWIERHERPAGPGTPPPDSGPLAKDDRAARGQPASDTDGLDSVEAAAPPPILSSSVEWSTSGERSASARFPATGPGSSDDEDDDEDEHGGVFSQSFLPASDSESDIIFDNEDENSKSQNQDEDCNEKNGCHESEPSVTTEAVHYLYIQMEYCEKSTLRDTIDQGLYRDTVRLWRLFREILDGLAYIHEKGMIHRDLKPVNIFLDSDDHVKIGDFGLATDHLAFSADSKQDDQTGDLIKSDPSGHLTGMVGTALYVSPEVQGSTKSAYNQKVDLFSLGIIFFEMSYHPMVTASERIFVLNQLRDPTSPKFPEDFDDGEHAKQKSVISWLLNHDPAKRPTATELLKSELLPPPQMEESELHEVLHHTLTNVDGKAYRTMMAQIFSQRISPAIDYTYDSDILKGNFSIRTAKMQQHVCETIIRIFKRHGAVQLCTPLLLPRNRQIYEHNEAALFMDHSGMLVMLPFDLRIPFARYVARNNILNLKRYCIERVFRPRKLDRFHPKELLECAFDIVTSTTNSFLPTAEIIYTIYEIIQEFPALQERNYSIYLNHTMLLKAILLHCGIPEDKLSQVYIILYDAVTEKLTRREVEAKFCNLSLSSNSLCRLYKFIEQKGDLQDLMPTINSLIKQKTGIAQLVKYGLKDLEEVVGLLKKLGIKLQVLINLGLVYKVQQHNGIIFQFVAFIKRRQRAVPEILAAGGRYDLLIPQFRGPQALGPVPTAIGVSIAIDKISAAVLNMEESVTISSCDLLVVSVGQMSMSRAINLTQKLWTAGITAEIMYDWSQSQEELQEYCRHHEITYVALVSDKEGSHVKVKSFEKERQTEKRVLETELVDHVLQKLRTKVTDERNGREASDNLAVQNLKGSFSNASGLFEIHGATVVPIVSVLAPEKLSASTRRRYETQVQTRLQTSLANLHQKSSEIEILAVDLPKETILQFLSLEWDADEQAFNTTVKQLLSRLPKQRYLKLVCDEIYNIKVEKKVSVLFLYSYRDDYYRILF

On to `CNC(=O)[C@@]1(C)CC[C@@H](Nc2ncc3c(Br)nn(-c4ccc5ncccc5c4)c3n2)C1` [(1S,3R)-3-((3-bromo-1-(quinolin-6-yl)-1H-pyrazolo[3,4-d]pyrimidin-6-yl)amino)-N,1-dimethylcyclopentane-1-carboxamide], for which the IC50 under setting [1] was in the range of 200 to 500 nM.

Take `CNC(=O)[C@]1(C)CC[C@@H](Nc2ncc3c(Br)nn(-c4ccc5ncc(CCO)cc5c4)c3n2)C1` [(1R,3R)-3-[[3-bromo-1-[3-(2-hydroxyethyl)-6-quinolyl]pyrazolo[3,4-d]pyrimidin-6-yl]amino]-N,1-dimethyl-cyclopentane-carboxamide]: the IC50 under setting [1] was less than 25 nM.

Turning to `CNC(=O)[C@]1(C)CC[C@@H](Nc2ncc3c(Br)nn(-c4cc(CCN)c5c(c4)CCO5)c3n2)C1` [(1R,3R)-3-[[1-[7-(2-aminoethyl)-2,3-dihydrobenzofuran-5-yl]-3-bromo-pyrazolo [3,4-d]pyrimidin-6-yl]amino]-N,1-dimethyl-cyclopentanecarboxamide], the IC50 under setting [1] fell in the range of 25 to 200 nM.

Regarding `CNC(=O)[C@]1(C)CC[C@@H](Nc2ncc3c(Br)nn(-c4cc(Cl)cc(C(=O)N(C)C5CNC5)c4)c3n2)C1` [N-(azetidin-3-yl)-3-[3-bromo-6-[[(1R,3R)-3-methyl-3-(methylcarbamoyl)cyclopentyl]amino]pyrazolo[3,4-d]pyrimidin-1-yl]-5-chloro-N-methyl-benzamide], the IC50 under setting [1] was 25 to 200 nM.

Take `Cc1nc2c(F)cc(-n3nc(Br)c4cnc(N[C@@H]5CC[C@@H](C(=O)N6CCN(C)C(=O)C6)C5)nc43)cc2cc1F` [4-((1R,3R)-3-((3-bromo-1-(3,8-difluoro-2-methylquinolin-6-yl)-1H-pyrazolo[3,4-d]pyrimidin-6-yl)amino)cyclopentane-1-carbonyl)-1-methylpiperazin-2-one]: the IC50 under setting [1] lay within 25 to 200 nM.

`CNC(=O)[C@]1(C)CC[C@@H](Nc2ncc3c(Br)nn(-c4cc(CCCN)c5ncccc5c4)c3n2)C1` [(1R,3R)-3-[[1-[8-(3-aminopropyl)-6-quinolyl]-3-bromo-pyrazolo[3,4-d]pyrimidin-6-yl]amino]-N,1-dimethyl-cyclopentanecarboxamide]: under setting [1], the IC50 was in the range of 25 to 200 nM.

Turning to `CN1CCC2(CCN(C(=O)[C@@H]3CC[C@@H](Nc4ncc5c(Br)nn(-c6cc(F)c7ncccc7c6)c5n4)C3)C2)C1=O` (stereo partly drawn) [7-((1R,3R)-3-((3-bromo-1-(8-fluoroquinolin-6-yl)-1H-pyrazolo[3,4-d]pyrimidin-6-yl)amino)cyclopentane-1-carbonyl)-2-methyl-2,7-diazaspiro[4.4]nonan-1-one], the IC50 under setting [1] was in the range of 25 to 200 nM.

Regarding `C[C@@H]1CN(C(=O)[C@@H]2CC[C@@H](Nc3ncc4c(Br)nn(-c5ccc6ncccc6c5)c4n3)C2)C[C@@H](C)O1` [((1R,3R)-3-((3-bromo-1-(quinolin-6-yl)-1H-pyrazolo[3,4-d]pyrimidin-6-yl)amino)cyclo-pentyl)((2R,6R)-2,6-dimethylmorpholino) methanone], under setting [1], the IC50 lay in the range of 25 to 200 nM.

With `CNC(=O)[C@]1(C)CC[C@@H](Nc2ncc3c(Br)nn(-c4ccc(-c5nnc(C)o5)c(CCO)c4)c3n2)C1` [(1R,3R)-3-[[3-bromo-1-[3-(2-hydroxyethyl)-4-(5-methyl-1,3,4-oxadiazol-2-yl)phenyl]pyrazolo[3,4-d]pyrimidin-6-yl]amino]-N,1-dimethyl-cyclopentanecarboxamide], the IC50 under setting [1] lay in the range of 25 to 200 nM.

As for `N#Cc1cc(-n2nc(Br)c3cnc(N[C@@H]4CC[C@@H](C(=O)N5CC(F)C5)C4)nc32)cc2cccnc12` [6-(3-bromo-6-(((1R,3R)-3-(3-fluoroazetidine-1-carbonyl)cyclopentyl)amino)-1H-pyrazolo [3,4-d]pyrimidin-1-yl)quinoline-8-carbonitrile], the IC50 under setting [1] is less than 25 nM.

Turning to `O=S(=O)(NC1CC1)[C@@H]1CC[C@@H](Nc2ncc3c(Br)nn(-c4ccc5ncccc5c4)c3n2)C1` [(1R,3R)-3-((3-bromo-1-(quinolin-6-yl)-1H-pyrazolo[3,4-d]pyrimidin-6-yl)amino)-N-cyclopropylcyclopentane-1-sulfonamide], under setting [1], the IC50 lay within 25 to 200 nM.

As for `CNC(=O)[C@]1(C)CC[C@@H](Nc2ncc3c(Br)nn(-c4ccc5nc(N6CCOCC6)ncc5c4)c3n2)C1` [(1R,3R)-3-[[3-bromo-1-(2-morpholino-quinazolin-6-yl)pyrazolo[3,4-d]pyrimidin-6-yl]amino]-N,1-dimethyl-cyclopentane-carboxamide; 2,2,2-trifluoroacetic acid], the IC50 under setting [1] lay within 25 to 200 nM.

With `CNC(=O)[C@]1(C)CC[C@@H](Nc2ncc3c(Br)nn(-c4cc(Br)cc(CO)c4)c3n2)C1` [(1R,3R)-3-[[3-bromo-1-[3-bromo-5-(hydroxymethyl)phenyl]pyrazolo [3,4-d]pyrimidin-6-yl]amino]-N,1-dimethyl-cyclopentanecarboxamide], the IC50 under setting [1] was in the range of 25 to 200 nM.

As to `CNC(=O)[C@]1(CC(F)F)CC[C@@H](Nc2ncc3c(Br)nn(-c4ccc5nccnc5c4)c3n2)C1` [Example 51, (1R,3R)-3-((3-bromo-1-(quinoxalin-6-yl)-1H-pyrazolo[3,4-d]pyrimidin-6-yl)amino)-1-(2,2-difluoroethyl)-N-methylcyclopentane-1-carboxamide; 2,2,2-trifluoroacetic acid], the IC50 under setting [2] lay in the range of 25 to 200 nM.

With `CNC(=O)[C@]1(C)CC[C@@H](Nc2ncc3c(Br)nn(-c4ccc5c(c4)C(N)CO5)c3n2)C1` (some centres unmarked), under setting [1], the IC50 is 25 to 200 nM.

Consider `CNC(=O)[C@@H]1CC[C@@H](Nc2ncc3c(Br)nn(-c4ccc5ncc(Cl)cc5c4)c3n2)C1` [(1R,3R)-3-[[3-bromo-1-(3-chloro-6-quinolyl)pyrazolo[3,4-d]pyrimidin-6-yl]amino]-N-methyl-cyclopentanecarboxamide], for which, under setting [1], the IC50 lay in the range of 25 to 200 nM.

For the molecule `CNC(=O)[C@]1(C)CC[C@@H](Nc2ncc3c(Br)nn(-c4cc(F)c5nc(C)cc(Cl)c5c4)c3n2)C1` [(1R,3R)-3-[[3-bromo-1-(4-chloro-8-fluoro-2-methyl-6-quinolyl)pyrazolo[3,4-d]pyrimidin-6-yl]amino]-N,1-dimethyl-cyclopentanecarboxamide], the IC50 under setting [1] was 25 to 200 nM.

As for `CNC(=O)[C@]1(C)CC[C@@H](Nc2ncc3c(Br)nn(-c4cc(CO)cc([N+](=O)[O-])c4)c3n2)C1` [(1R,3R)-3-[[3-bromo-1-[3-(hydroxy-methyl)-5-nitro-phenyl]pyrazolo [3,4-d]pyrimidin-6-yl]amino]-N,1-dimethyl-cyclopentanecarboxamide], under setting [1], the IC50 lay in the range of 25 to 200 nM.

Turning to `CNC(=O)[C@@H]1CC[C@@H](Nc2ncc3c(Br)nn(-c4ccc(-c5nnn[nH]5)cc4)c3n2)C1` [(1R,3R)-3-((1-(4-(1H-tetrazol-5-yl)phenyl)-3-bromo-1H-pyrazolo[3,4-d]pyrimidin-6-yl)amino)-N-methylcyclopentane-1-carboxamide], under setting [1], the IC50 lay within 25 to 200 nM.

In the case of `CNC(=O)[C@]1(C)CC[C@@H](Nc2ncc3c(Br)nn(-c4ccc(-n5ccnc5)cc4)c3n2)C1` [(1R,3R)-3-[[3-bromo-1-(4-imidazol-1-ylphenyl)pyrazolo[3,4-d]pyrimidin-6-yl]amino]-N,1-dimethyl-cyclo-pentanecarboxamide], the IC50 under setting [1] is 25 to 200 nM.

`CC(C)N(CC(N)=O)C(=O)[C@@H]1CC[C@@H](Nc2ncc3c(Br)nn(-c4cc(F)c5ncccc5c4)c3n2)C1` [(1R,3R)-N-(2-amino-2-oxoethyl)-3-((3-bromo-1-(8-fluoroquinolin-6-yl)-1H-pyrazolo[3,4-d]pyrimidin-6-yl)amino)-N-isopropylcyclopentane-1-carboxamide]: the IC50 under setting [1] was 25 to 200 nM.

Turning to `CNC(=O)[C@]1(C)CC[C@@H](Nc2ncc3c(Br)nn(-c4cc(C5(CN)CC5)c5ncccc5c4)c3n2)C1` [(1R,3R)-3-[[1-[8-[1-(aminomethyl)cyclo-propyl]-6-quinolyl]-3-bromo-pyrazolo [3,4-d]pyrimidin-6-yl]amino]-N,1-dimethyl-cyclopentanecarboxamide], the IC50 under setting [1] lay in the range of 25 to 200 nM.

As for `CNC(=O)[C@]1(C)CC[C@@H](Nc2ncc3c(Br)nn(-c4cc(Cl)cc(CCN)c4)c3n2)C1` [Example 41, (1R,3R)-3-((1-(3-(2-aminoethyl)-5-chlorophenyl)-3-bromo-1H-pyrazolo[3,4-d]pyrimidin-6-yl)amino)-N,1-dimethylcyclopentane-1-carboxamide hydrochloride], the IC50 under setting [2] is less than 25 nM.

As to `CNC(=O)[C@]1(C)CC[C@@H](Nc2ncc3c(Br)nn(-c4cc(Cl)cc([C@H](C)N)c4)c3n2)C1` [Example 64, (1R,3R)-3-((1-(3-((S)-1-aminoethyl)-5-chlorophenyl)-3-bromo-1H-pyrazolo[3,4-d]pyrimidin-6-yl)amino)-N,1-dimethylcyclopentane-1-carboxamide], the IC50 under setting [2] was less than 25 nM.

In the case of `CNC(=O)[C@]1(C)CC[C@@H](Nc2ncc3c(Br)nn(-c4cc(CCN)c5cnccc5c4)c3n2)C1`, the IC50 under setting [1] was less than 25 nM.

As for `CNC(=O)[C@]1(C)CC[C@@H](Nc2ncc3c(Br)nn(-c4cc(C#N)cc(OCCO)c4)c3n2)C1` [(1R,3R)-3-[[3-bromo-1-[3-cyano-5-(2-hydroxyethoxy)phenyl]pyrazolo[3,4-d]pyrimidin-6-yl]amino]-N,1-dimethyl-cyclopentanecarboxamide], the IC50 under setting [1] fell in the range of 25 to 200 nM.

On to `Cc1nnc(-c2ccc(-n3nc(Br)c4cnc(N[C@@H]5CC[C@@](C)(C(=O)N6CCCC6)C5)nc43)cc2)s1` [[(1R,3R)-3-[[3-bromo-1-[4-(5-methyl-1,3,4-thiadiazol-2-yl)phenyl]pyrazolo[3,4-d]pyrimidin-6-yl]amino]-1-methyl-cyclopentyl]-pyrrolidin-1-yl-methanone], for which, under setting [1], the IC50 fell in the range of 25 to 200 nM.

For `CNC(=O)CC1CC(Nc2ncc3c(Br)nn(-c4ccc(-c5nnc(C)s5)c(CCC#N)c4)c3n2)C1` (centres unmarked), the IC50 under setting [1] was in the range of 25 to 200 nM.

On to `CN1CCN(C(=O)[C@@H]2CC[C@@H](Nc3ncc4c(Br)nn(-c5cc(F)c6ncccc6c5)c4n3)C2)CC1=O` [4-((1R,3R)-3-((3-bromo-1-(8-fluoroquinolin-6-yl)-1H-pyrazolo[3,4-d]pyrimidin-6-yl)amino)cyclopentane-1-carbonyl)-1-methyl-piperazin-2-one], for which the IC50 under setting [1] lay within 25 to 200 nM.
